Measured values from PubChem BioAssay AID2060486 (Molecular Pharmacology Branch, DTP, NCI, 2025).
pIC50: −log10 of the molar value.

Test system: IGROV1 complex spheroids (HUVEC, MSC), viability % test/control
Assay: Anticancer human tumor IGROV1 cell line growth inhibition [GQUAD];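 further: spheroids exposed to compounds for 7 days before readout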;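 on viability, T/C: 100% = DMSO vehicle control viability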
Details: for pIC50: curve of first compound; for viability, T/C: stronger effect = lower value
Method in brief: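 Multi-cell-type spheroids of tumor cells with HUVEC and mesenchymal stem cells, treated with drug combinations. Concentrations descend in half-log steps from near clinical Cmax, or from 10 microM where Cmax is unknown; viability read-out.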

For `C#Cc1c(F)ccc2cc(O)cc(-c3ncc4c(N5CC6CCC(C5)N6)nc(OCC56CCCN5CC(F)C6)nc4c3F)c12` (configuration not stated) + CN(C)c1ccc(Nc2c3ccc(NC(=O)CCN4CCCC4)cc3nc3cc(NC(=O)CCN4CCCC4)ccc23)cc1, the pIC50 (second compound 0.0316 µM) was less than 5.00, the pIC50 (second compound 0.1 µM) was less than 5.00 and the pIC50 (second compound 0.316 µM) was less than 5.00. The pIC50 (second compound 1 µM) was 5.09, the pIC50 (second compound 3.16 µM) was 5.29 and the pIC50 (second compound 10 µM) was 6.42. The viability, T/C (second compound 0.0316 µM, first compound 0.0316 µM) was 106%, the viability, T/C (second compound 0.0316 µM, first compound 0.1 µM) was 76.6% and the viability, T/C (second compound 0.0316 µM, first compound 0.316 µM) was 97.9%. It also gave a viability, T/C (second compound 0.0316 µM, first compound 1 µM) of 78.1%, a viability, T/C (second compound 0.0316 µM, first compound 3.16 µM) of 84.5% and a viability, T/C (second compound 0.0316 µM, first compound 10 µM) of 62.2%. The viability, T/C (second compound 0.1 µM, first compound 0.0316 µM) was 97.3%, the viability, T/C (second compound 0.1 µM, first compound 0.1 µM) was 83.7% and the viability, T/C (second compound 0.1 µM, first compound 0.316 µM) was 88%. The viability, T/C (second compound 0.1 µM, first compound 1 µM) was 84.3%, the viability, T/C (second compound 0.1 µM, first compound 3.16 µM) was 93% and the viability, T/C (second compound 0.1 µM, first compound 10 µM) was 62.1%. It also gave a viability, T/C (second compound 0.316 µM, first compound 0.0316 µM) of 87.8%, a viability, T/C (second compound 0.316 µM, first compound 0.1 µM) of 99.1% and a viability, T/C (second compound 0.316 µM, first compound 0.316 µM) of 76.3%. The viability, T/C (second compound 0.316 µM, first compound 1 µM) was 86%, the viability, T/C (second compound 0.316 µM, first compound 3.16 µM) was 89.5% and the viability, T/C (second compound 0.316 µM, first compound 10 µM) was 54%. The viability, T/C (second compound 1 µM, first compound 0.0316 µM) was 86.1%, the viability, T/C (second compound 1 µM, first compound 0.1 µM) was 89% and the viability, T/C (second compound 1 µM, first compound 0.316 µM) was 86.7%. For the same compound, the viability, T/C (second compound 1 µM, first compound 1 µM) was 73.6%, the viability, T/C (second compound 1 µM, first compound 3.16 µM) was 74.1% and the viability, T/C (second compound 1 µM, first compound 10 µM) was 44.8%. For the same compound, the viability, T/C (second compound 3.16 µM, first compound 0.0316 µM) was 86.4%, the viability, T/C (second compound 3.16 µM, first compound 0.1 µM) was 85.4% and the viability, T/C (second compound 3.16 µM, first compound 0.316 µM) was 87.7%. For the same compound, the viability, T/C (second compound 3.16 µM, first compound 1 µM) was 79%, the viability, T/C (second compound 3.16 µM, first compound 3.16 µM) was 66.2% and the viability, T/C (second compound 3.16 µM, first compound 10 µM) was 27.9%. The viability, T/C (second compound 10 µM, first compound 0.0316 µM) was 50%, the viability, T/C (second compound 10 µM, first compound 0.1 µM) was 50.4% and the viability, T/C (second compound 10 µM, first compound 0.316 µM) was 59.8%. The viability, T/C (second compound 10 µM, first compound 1 µM) was 38%, the viability, T/C (second compound 10 µM, first compound 3.16 µM) was 17.2% and the viability, T/C (second compound 10 µM, first compound 10 µM) was 5.16%.
